Tests used:
Details in all cases: incubation time: 72 h
[1] = test system: MDA-MB-468; assay: drug sensitivity score (DSS), CellTiter-Blue viability (DSS (AUC-based score)); higher = stronger viability inhibition; extreme values may be limits of the assay
Procedure: (§1)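 DSRT with the CellTiter-Blue (resazurin reduction) viability readout, fluorescence 560/590 nm, 72 h incubation. Plates were normalised to DMSO and benzethonium chloride controls. DSS is computed from the area under the fitted dose-response curve (5 or 9 concentrations).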

[2] = test system: MFM-223; assay: as above
Procedure: as §1

[3] = test system: CAL-85-1; assay: as above
Procedure: as §1

[4] = test system: BT-549; assay: as above
Procedure: as §1

[5] = test system: CAL-120; assay: as above
Procedure: as §1

[6] = test system: HCC1937; assay: as above
Procedure: as §1

[7] = test system: MDA-MB-231; assay: as above
Procedure: as §1

[8] = test system: HCC1599; assay: as above
Procedure: as §1

[9] = test system: CAL-148; assay: as above
Procedure: as §1

[10] = test system: CAL-51; assay: as above
Procedure: as §1

[11] = test system: HCC1143; assay: as above
Procedure: as §1

[12] = test system: BT-474; assay: as above
Procedure: as §1

[13] = test system: DU-4475; assay: as above
Procedure: as §1

[14] = test system: MDA-MB-453; assay: as above
Procedure: as §1

[15] = test system: MDA-MB-468; assay: normalised viability (% of control), CellTiter-Blue; higher = more viable cells (about 100 = DMSO control)
In short: (§2)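 Compound dissolved in 5 µl medium was pre-loaded into 384-well plates, and breast cancer cell lines in 20 µl suspension were seeded on top and incubated 72 h. After adding 2.5 µl CellTiter-Blue reagent for 2 h at 37 °C, fluorescence was read at 560/590 nm. Plates were normalised to vehicle (100) and a positive kill control (0), with Z'-factor quality control. Each value is normalised viability at a single listed concentration from the series.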

[16] = test system: CAL-85-1; assay: as above
In short: as §2

[17] = test system: CAL-120; assay: as above
In short: as §2

[18] = test system: Hs578T; assay: as above
In short: as §2

[19] = test system: HCC1937; assay: as above
In short: as §2

[20] = test system: MDA-MB-231; assay: as above
In short: as §2

[21] = test system: HDQ-P1; assay: as above
In short: as §2

[22] = test system: HCC1599; assay: as above
In short: as §2

[23] = test system: CAL-148; assay: as above
In short: as §2

[24] = test system: MDA-MB-436; assay: as above
In short: as §2

[25] = test system: HCC1143; assay: as above
In short: as §2

C=C1C[C@@H]2[C@H](CC[C@]3(C)C(=O)CC[C@@H]23)[C@@]2(C)C=CC(=O)C=C12 [Exemestane]
drug sensitivity score [1]: 0 | drug sensitivity score [2]: 0 | drug sensitivity score [3]: 0 | drug sensitivity score [4]: 0 | drug sensitivity score [5]: 0 | drug sensitivity score [6]: 0 | drug sensitivity score [7]: 0 | drug sensitivity score [8]: 0 | drug sensitivity score [9]: 0 | drug sensitivity score [10]: 0 | drug sensitivity score [11]: 0 | drug sensitivity score [12]: 0 | drug sensitivity score [13]: 0 | drug sensitivity score [14]: 1.5 | normalised viability ([15]; 10 nM): 109% | normalised viability ([15]; 1000 nM): 112% | normalised viability ([15]; 10000 nM): 96.5% | normalised viability ([16]; 3 nM): 90.6% | normalised viability ([16]; 30 nM): 81.8% | normalised viability ([16]; 100 nM): 89.8% | normalised viability ([17]; 10 nM): 96.1% | normalised viability ([17]; 1000 nM): 92.7% | normalised viability ([17]; 10000 nM): 84% | normalised viability ([18]; 10 nM): 112% | normalised viability ([18]; 1000 nM): 110% | normalised viability ([18]; 10000 nM): 100% | normalised viability ([19]; 10 nM): 87.7% | normalised viability ([19]; 1000 nM): 88.3% | normalised viability ([19]; 10000 nM): 87.8% | normalised viability ([20]; 10 nM): 101% | normalised viability ([20]; 1000 nM): 98.1% | normalised viability ([20]; 10000 nM): 124% | normalised viability ([21]; 3 nM): 94.5% | normalised viability ([21]; 30 nM): 98.5% | normalised viability ([21]; 100 nM): 97.1% | normalised viability ([22]; 10 nM): 81.7% | normalised viability ([22]; 1000 nM): 86.6% | normalised viability ([22]; 10000 nM): 77% | normalised viability ([23]; 3 nM): 95.1% | normalised viability ([23]; 30 nM): 88.7% | normalised viability ([23]; 100 nM): 87% | normalised viability ([24]; 10 nM): 112% | normalised viability ([24]; 1000 nM): 87.4% | normalised viability ([24]; 10000 nM): 96.2% | normalised viability ([25]; 10 nM): 88.7% | normalised viability ([25]; 1000 nM): 97.8% | normalised viability ([25]; 10000 nM): 82.8%

c1ccc2c(CCNc3ccc(Nc4ccncc4)cc3)c[nH]c2c1 [Serdemetan]
drug sensitivity score [1]: 0 | drug sensitivity score [2]: 0 | drug sensitivity score [3]: 0 | drug sensitivity score [4]: 6.96 | drug sensitivity score [5]: 0 | drug sensitivity score [6]: 0 | drug sensitivity score [7]: 0 | drug sensitivity score [8]: 1.87 | drug sensitivity score [9]: 4.36 | drug sensitivity score [10]: 1.53 | drug sensitivity score [11]: 0 | drug sensitivity score [12]: 0 | drug sensitivity score [13]: 3.86 | drug sensitivity score [14]: 3.89 | normalised viability ([15]; 10 nM): 111% | normalised viability ([15]; 1000 nM): 103% | normalised viability ([15]; 10000 nM): 60.9% | normalised viability ([16]; 3 nM): 93.3% | normalised viability ([16]; 30 nM): 85.8% | normalised viability ([16]; 100 nM): 84.5% | normalised viability ([17]; 10 nM): 88% | normalised viability ([17]; 1000 nM): 91.4% | normalised viability ([17]; 10000 nM): 48.1% | normalised viability ([18]; 10 nM): 108% | normalised viability ([18]; 1000 nM): 91.5% | normalised viability ([18]; 10000 nM): 66.8% | normalised viability ([19]; 10 nM): 91.2% | normalised viability ([19]; 1000 nM): 94.3% | normalised viability ([19]; 10000 nM): 51.4% | normalised viability ([20]; 10 nM): 88.4% | normalised viability ([20]; 1000 nM): 89.5% | normalised viability ([20]; 10000 nM): 58.2% | normalised viability ([21]; 3 nM): 97.5% | normalised viability ([21]; 30 nM): 99.7% | normalised viability ([21]; 100 nM): 96.7% | normalised viability ([22]; 10 nM): 103% | normalised viability ([22]; 1000 nM): 93.8% | normalised viability ([22]; 10000 nM): 74.6% | normalised viability ([23]; 3 nM): 88.9% | normalised viability ([23]; 30 nM): 86.1% | normalised viability ([23]; 100 nM): 96.3% | normalised viability ([24]; 10 nM): 96.8% | normalised viability ([24]; 1000 nM): 51.4% | normalised viability ([24]; 10000 nM): 43.6% | normalised viability ([25]; 10 nM): 87.7% | normalised viability ([25]; 1000 nM): 77.7% | normalised viability ([25]; 10000 nM): 43.3%

S=P(N1CC1)(N1CC1)N1CC1 [Thio-TEPA]
drug sensitivity score [1]: 0 | drug sensitivity score [2]: 0 | drug sensitivity score [3]: 0 | drug sensitivity score [4]: 0 | drug sensitivity score [5]: 0 | drug sensitivity score [6]: 0 | drug sensitivity score [7]: 3.37 | drug sensitivity score [8]: 0 | drug sensitivity score [9]: 0 | drug sensitivity score [10]: 0 | drug sensitivity score [11]: 0 | drug sensitivity score [12]: 0 | drug sensitivity score [13]: 0 | drug sensitivity score [14]: 0 | normalised viability ([15]; 100 nM): 104% | normalised viability ([15]; 10000 nM): 107% | normalised viability ([15]; 100000 nM): 95.3% | normalised viability ([16]; 30 nM): 99.9% | normalised viability ([16]; 300 nM): 96.4% | normalised viability ([16]; 1000 nM): 102% | normalised viability ([17]; 100 nM): 90.7% | normalised viability ([17]; 10000 nM): 86.8% | normalised viability ([17]; 100000 nM): 93.7% | normalised viability ([18]; 100 nM): 115% | normalised viability ([18]; 10000 nM): 95.6% | normalised viability ([18]; 100000 nM): 109% | normalised viability ([19]; 100 nM): 102% | normalised viability ([19]; 10000 nM): 93.4% | normalised viability ([19]; 100000 nM): 83.6% | normalised viability ([20]; 100 nM): 103% | normalised viability ([20]; 10000 nM): 83.2% | normalised viability ([20]; 100000 nM): 64.4% | normalised viability ([21]; 30 nM): 111% | normalised viability ([21]; 300 nM): 115% | normalised viability ([21]; 1000 nM): 104% | normalised viability ([22]; 100 nM): 97.8% | normalised viability ([22]; 10000 nM): 82.7% | normalised viability ([22]; 100000 nM): 94.7% | normalised viability ([23]; 30 nM): 93.8% | normalised viability ([23]; 300 nM): 92.7% | normalised viability ([23]; 1000 nM): 105% | normalised viability ([24]; 100 nM): 110% | normalised viability ([24]; 10000 nM): 87.7% | normalised viability ([24]; 100000 nM): 123% | normalised viability ([25]; 100 nM): 109% | normalised viability ([25]; 10000 nM): 95.9% | normalised viability ([25]; 100000 nM): 81.7%

N#Cc1ccc(COC[C@H]2O[C@@H](n3c(NCc4ccc(Cl)c(Cl)c4)nc4c(N)ncnc43)[C@H](O)[C@@H]2O)cc1
drug sensitivity score [1]: 1.65 | drug sensitivity score [2]: 0 | drug sensitivity score [3]: 0 | drug sensitivity score [4]: 4.23 | drug sensitivity score [5]: 0 | drug sensitivity score [6]: 3.59 | drug sensitivity score [7]: 4.35 | drug sensitivity score [8]: 8.13 | drug sensitivity score [9]: 0 | drug sensitivity score [10]: 0 | drug sensitivity score [11]: 0 | drug sensitivity score [12]: 0 | drug sensitivity score [13]: 1.33 | drug sensitivity score [14]: 0 | normalised viability ([15]; 10 nM): 108% | normalised viability ([15]; 1000 nM): 89.7% | normalised viability ([15]; 10000 nM): 68.7% | normalised viability ([16]; 3 nM): 108% | normalised viability ([16]; 30 nM): 107% | normalised viability ([16]; 100 nM): 110% | normalised viability ([17]; 10 nM): 103% | normalised viability ([17]; 1000 nM): 110% | normalised viability ([17]; 10000 nM): 62.4% | normalised viability ([18]; 10 nM): 104% | normalised viability ([18]; 1000 nM): 99.3% | normalised viability ([18]; 10000 nM): 73.8% | normalised viability ([19]; 10 nM): 135% | normalised viability ([19]; 1000 nM): 78.5% | normalised viability ([19]; 10000 nM): 71.8% | normalised viability ([20]; 10 nM): 128% | normalised viability ([20]; 1000 nM): 77.3% | normalised viability ([20]; 10000 nM): 57.2% | normalised viability ([21]; 3 nM): 115% | normalised viability ([21]; 30 nM): 104% | normalised viability ([21]; 100 nM): 105% | normalised viability ([22]; 10 nM): 97.3% | normalised viability ([22]; 1000 nM): 65.6% | normalised viability ([22]; 10000 nM): 22% | normalised viability ([23]; 3 nM): 101% | normalised viability ([23]; 30 nM): 105% | normalised viability ([23]; 100 nM): 99.3% | normalised viability ([24]; 10 nM): 95.2% | normalised viability ([24]; 1000 nM): 84.8% | normalised viability ([24]; 10000 nM): 50.9% | normalised viability ([25]; 10 nM): 90.1% | normalised viability ([25]; 1000 nM): 87.4% | normalised viability ([25]; 10000 nM): 60.8%

Reference: the supplement of paper PMC4862054
